From patent US11103457B2, “Pharmaceutical compositions comprising safinamide” (Zambon S.P.A., priority 2017, dated 2021)

Assay: Sensory evaluation of the active ingredient safinamide (taste and irritation in the mouth)
Type: in vivo
Conditions: five minutes after rinsing with drinking water; 2 subjects
Description: In order to verify the unpleasant taste and irritation sensation of the active pharmaceutical ingredient, safinamide methanesulphonate, a test was performed in vivo by using an amount of safinamide methanesulfonate equal to 100 mg of safinamide base. Sensory evaluation was carried out by recruiting 2 subjects, who were asked to put said amount in the mouth by avoiding swallowing the mass. At the end of the test, participants were asked to rinse the mouth with plenty of drinking water; five minutes later their tongue and palate resulted to be still sore.

C[C@H](NCc1ccc(OCc2cccc(F)c2)cc1)C(N)=O [safinamide methanesulfonate, (2S)-2-[[4-[(3-fluorophenyl)methoxy]phenyl]methylamino]propanamide]
tongue and palate after rinsing the mouth: still sore
